# According to patent US12268727B2, “Bioactive polypeptides for improvements in plant protection, growth and productivity” (priority 2017, dated 2025):
# Several values for one entry are separate records, joined by “and”; a condition that tells them apart may be missing. Equal values may be shown once. Entries after “also recorded” stand apart in the source; their conditions may differ. Read-outs that look alike come from different tables or passages of the source.
# Experiments:
# [1] = test system: soybean; experiment: Soybean pod number after foliar application; assay type: in vivo; details: 300 nM at R1 and 17 days later, counted after 31 days
# Procedure: Plants were then placed under a long day conditions consisting of 16/8 light/day cycle and temperature 21-26° C. to promote early flowering and speed up progression to the reproductive (R) growth stage. When the soybean plants had reached the R1 stage of development a foliar application containing the Gm.RHPP (SEQ ID NO: 600) polypeptide at a final concentration of 300 nM and a non-ionic surfactant of 0.10% (NIS90:10; Precision Laboratories, LLC) was applied to soybean. Soybean plants were provided with the Gm.RHPP formulation and a non-ionic surfactant only control. Both the Gm.RHPP and the non-ionic surfactant control treatment were applied to 18 plants per treatment. Six equidistant sprays were provided approximately 15 cm above per each plant for complete coverage of foliage. After treatment application, the R1 soybean plants were returned to the control environmental growth room. […] Soybean pods of more than 1 mm in length were counted on the plants after 31 days from the first foliar spray treatment applications. […] A p value (p<0.05 for significance) was calculated from a paired T-test comparison between pod number from plants that received the Gm.RHPP and the non-ionic surfactant control treatment applications.
# [2] = test system: soybean; experiment: Soybean nodulation, root biomass and total biomass after foliar application; assay type: in vivo
# Procedure: Effective nodulation of soybean roots result in higher yields and higher quality seed production, protein and oil per seed or acre basis. This could be due to increased nitrogen fixation since nodulale formation increases nitrogen fixation. To determine whether root hair promoting bioactive priming polypeptide, RHPP (SEQ ID NO: 600) could modulate root biomass and nodulation and thereby improve nitrogen fixation, soybean plants (hybrid Morsoy 38X52 and Beck's hybrid 297R4) were treated with foliar application of RHPP (300 nM) at the R1-R2 stage of development.
# RHPP bioactive priming polypeptide (SEQ ID NO: 600, originally derived from Glycine max) was applied as foliar treatment to 4-week-old hybrid soybean (Morsoy variety) with 0.1% (v/v) non-ionic surfactant ([…] SURFACE™) using a spray bottle and delivering approximately 1.25 ml/plant. The experiment was conducted using a total of 8 plants per trial per treatment group. […] Growth parameters of nodule counts, root biomass and total biomass per plant were measured at 15 days post the foliar application and compared between the foliar treatments consisting of […] SURFACE surfactant (0.1% v/v) as a control and the RHPP polypeptide (300 nM) containing the […] SURFACE surfactant (0.1% v/v). Average growth parameters as described were normalized to the control plants that received the surfactant alone treatment (Table 38).
# [3] = test system: Candidatus Liberibacter asiaticus; details: in vivo
# [4] = test system: corn; experiment: Foliar application to corn in growth room, plant height (non-stress, heat and water deficit stress); details: for increase in plant height vs surfactant alone / Δ Height Normalized as a percentage of control height: 1 μM; for increase in plant height vs surfactant alone: V2-V3, heat and water deficit stress; for Δ Height (cm) / Δ Height Normalized as a percentage of control height: corn, heat and water deficit stress; for Δ Height (cm): 1 μM with 0.1% surfactant; for Δ Height Normalized as a percentage of control height: surfactant control = 100%; for plant height as % of control: foliar 1 μM
# [5] = test system: corn; experiment: Seed treatment of corn, field yield trials; assay type: in vivo; details: for yield increase vs non-treated seed: 2 hybrids; for Average Yield Bu/Ac / Average Change in Bu/Ac compared to Untreated Control: seed treatment on base ST, BECK's 5828YX; for Average Yield Bu/Ac: 1 location, four replicated trials; for Average Total Yield Bu/Ac Hybrid 1 / Average Total Yield Bu/Ac Hybrid 1 and 2 / Average Total Yield Bu/Ac Hybrid 2: seed treatment
# [6] = test system: reactive oxygen species (ROS) production in corn tissue; experiment: ROS activity assay in corn tissue (luminol/horseradish peroxidase, RLU); details: for Change (X) in RLU of Flg22 Polypeptide Compared to Negative Control / Average RLU of Flg22 Polypeptide Treatment: corn petiole; for Average RLU of Flg22 Polypeptide Treatment: background subtracted; for Relative ROS activity normalized to Bt.4Q7Flg22: normalized to Bt.4Q7Flg22 at 100 nM
# [7] = test system: citrus trees; details: for Flush length (% of control) / Average Flush Length (inches): injected April 2017, measured May 2018; for more new branch growth than untreated control: orange
# [8] = 300 nM + 0.1% v/v ALLIGARE SURFACE, Morsoy soybean, 15 days post application
# [9] = 300 nM + 0.1% v/v ALLIGARE SURFACE, Morsoy soybean, 15 days post foliar application, n = 8
# [10] = 300 nM, Morsoy, 15 days post application
# [11] = polypeptide 0.25 μM (cellobiose 1 mM where combined)
# [12] = polypeptide 1.0 μM (cellobiose 1 mM where combined)
# [13] = 0.25 μM in seed coating slurry (0.035 fl oz of 40 μM peptide solution/unit)
# [14] = 1.0 μM in seed coating slurry (0.14 fl oz of 40 μM peptide solution/unit)
substance,measurement,setting,value
"GGIRAAPTGNER (Glycine max) [RHPP, Root Hair Promoting Peptide from Glycine max]",pod count vs non-ionic surfactant control,[1],approximately doubled pod count
same,"Average nodule count per plant, RHPP treatment normalized as a percentage of the surfactant control",[2]; [8],170.42%
same,"Root biomass, RHPP treatment normalized as a percentage of the surfactant control",[2]; [8],120.57%
same,"Total biomass, RHPP treatment normalized as a percentage of the surfactant control",[2]; [8],108.44%
same,Average nodule count per plant,[2]; [9],15.13
same,Root biomass,[2]; [9],2.13 g
same,Total biomass,[2]; [9],46.24 g
same,increase in root biomass normalized to control,[2]; [10],more than 20%
same,increase in total biomass normalized to control,[2]; [10],8%
same,number of nodules per plant vs surfactant control,[2]; [10],approximately two times the number of nodules
Bt.4Q7Flg22: Flg22 polypeptide (22 amino acids) from flagellin of Bacillus thuringiensis strain 4Q7 (DRLSSGKRINSASDDAAGLAIA; listed as Bacillus thuringiensis),Ct values vs control trees,[3],slightly higher Ct counts; also recorded: significantly higher Ct values
same,"Percentage Reduction in CLas titer Normalized to the Control, Trial 1",[3],37% and 33%
same,reduction in CLas titer levels,[3],37% and 43%
same,increase in plant height vs surfactant alone,[4]; Trial 1,~13%
same,increase in plant height vs surfactant alone,[4]; Trial 3,> 33%
same,Δ Height (cm),[4]; Trial 1,+11.68 cm
same,Δ Height Normalized as a percentage of control height,[4]; Trial 1,112.9%
same,Δ Height (cm),[4]; Trial 2,+9.28 cm
same,Δ Height Normalized as a percentage of control height,[4]; Trial 2,99.5%
same,Δ Height (cm),[4]; Trial 3,+11.03 cm
same,Δ Height Normalized as a percentage of control height,[4]; Trial 3,133.2%
same,plant height as % of control,[4]; heat/water stressed conditions,~108%
same,plant height as % of control,[4]; non-stressed conditions,108% and 102%
same,yield gain vs base seed treatment only,"[5]; 1 uM in slurry, 3 hybrids, 8 locations",4.73 Bu/Ac
same,yield increase vs non-treated seed,"[5]; high rate, 1.0 μM slurry (0.14 Fl. oz per unit), 12 locations",5.3 Bu/Ac
same,yield increase vs non-treated seed,"[5]; low rate, 0.25 μM slurry (0.035 Fl. oz per unit), 12 locations",2.1 Bu/Ac
same,win rate,"[5]; second study, 12 locations",50%
same,yield advantage,"[5]; second study, 12 locations",2.8 Bu/Ac
same,Average Yield Bu/Ac,[5]; [11],47.06 Bu/Ac
same,Average Yield Bu/Ac,[5]; [12],29.60 Bu/Ac
same,Average Change in Bu/Ac compared to Untreated Control,[5]; [11],+19.07 Bu/Ac
same,Average Change in Bu/Ac compared to Untreated Control,[5]; [12],+1.60 Bu/Ac
same,Average Total Yield Bu/Ac Hybrid 1,[5]; [13],218.36 Bu/Ac
same,Average Total Yield Bu/Ac Hybrid 1 and 2,[5]; [13],200.62 Bu/Ac
same,Average Total Yield Bu/Ac Hybrid 2,[5]; [13],182.88 Bu/Ac
same,Average Total Yield Bu/Ac Hybrid 1,[5]; [14],213.44 Bu/Ac
same,Average Total Yield Bu/Ac Hybrid 1 and 2,[5]; [14],202.62 Bu/Ac
same,Average Total Yield Bu/Ac Hybrid 2,[5]; [14],187.48 Bu/Ac
same,Avg. Activity (%) Corn (5828 YX) 5 nM polypeptide,"[6]; Table 33, RLU relative to native Bt.4Q7Flg22 = 100",100%
same,Avg. Activity (%) Corn (5828 YX) 5 nM polypeptide,"[6]; Table 35, single polypeptides and combinations, Bt.4Q7Flg22 = 100",100%
same,Change (X) in RLU of Flg22 Polypeptide Compared to Negative Control,[6]; 1.0 nM,0.8X
same,Average RLU of Flg22 Polypeptide Treatment,[6]; 1.0 nM,6851 RLU
same,Change (X) in RLU of Flg22 Polypeptide Compared to Negative Control,[6]; 5 nM,1.1X
same,Average RLU of Flg22 Polypeptide Treatment,[6]; 5 nM,9389 RLU
same,Change (X) in RLU of Flg22 Polypeptide Compared to Negative Control,[6]; 25 nM,1.4X
same,Average RLU of Flg22 Polypeptide Treatment,[6]; 25 nM,12157 RLU
same,Average RLU,"[6]; corn stalk tissue, 10 nM",6032 RLU
same,relative ROS activity,"[6]; corn stalk tissue, 10 nM",0.2 ×
same,Relative ROS activity normalized to Bt.4Q7Flg22,"[6]; corn stalk tissue, 10 nM",(0.2X)
same,Average RLU,"[6]; corn stalk tissue, 100 nM",33037 RLU
same,Relative ROS activity normalized to Bt.4Q7Flg22,"[6]; corn stalk tissue, 100 nM",(1X*)
same,phytotoxicity after trunk injection,[7]; 1× or 10× rate,no phytotoxicity occurred
same,average new shoot length,"[7]; Hamlin and Vernia orange, trunk injection, two months after treatment",3.84 inches
same,shoot length vs untreated control (printed as % longer),"[7]; Hamlin and Vernia orange, two months after trunk injection or foliar spray",25%
same,Flush length (% of control),"[7]; Red Grapefruit, 1X, 0.138 μM",135%
same,Average Flush Length (inches),"[7]; Red Grapefruit, 1X, 0.138 μM, control 8.05",10.83 inches
same,Flush length (% of control),"[7]; Red Grapefruit, 10X, 1.38 μM",113%
same,Average Flush Length (inches),"[7]; Red Grapefruit, 10X, 1.38 μM, control 8.05",9.13 inches
same,Flush length (% of control),"[7]; Valencia Orange, 1X, 0.138 μM",184%
same,Average Flush Length (inches),"[7]; Valencia Orange, 1X, 0.138 μM, control 7.23",13.33 inches
same,Flush length (% of control),"[7]; Valencia Orange, 10X, 1.38 μM",170%
same,Average Flush Length (inches),"[7]; Valencia Orange, 10X, 1.38 μM, control 7.23",12.29 inches
same,more new branch growth than untreated control,[7]; 1× injection,85%
same,more new branch growth than untreated control,"[7]; 1× injection April 2017, measured May 2018",6.1 inches
